Results taken from PubChem BioAssay AID248 (DTP/NCI, 2004).
Toxic doses and inconclusive results are not listed. No stated cut-off is given here; in the data, active means T/C of 150% or more; inactive means T/C below 125%.

Tested on: L1210 leukemia ip in BDF1 mice, survival T/C
Test: NCI In Vivo Anticancer Drug Screen. Data for tumor model L1210 Leukemia (intraperitoneal) in B6D2F1 (BDF1) mice
Conditions: endpoint: mean survival time, higher = longer survival
Summary of the method: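 Mice bearing the transplanted tumor received compound or vehicle. Survival of the treated group was divided by that of the vehicle-treated control group to give the ratio.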

[1] = dose: 100.0 mg/kg/injection, schedule: Q01DX009 (ip), vehicle: Klucel (hydroxypropylcellulose) (HPC)
[2] = dose: 100.0 mg/kg/injection, schedule: Q04DX003 (ip), vehicle: Klucel (hydroxypropylcellulose) (HPC)
[3] = dose: 200.0 mg/kg/injection, schedule: Q01DX009 (ip), vehicle: Klucel (hydroxypropylcellulose) (HPC)
[4] = dose: 200.0 mg/kg/injection, schedule: Q04DX003 (ip), vehicle: Klucel (hydroxypropylcellulose) (HPC)
[5] = dose: 400.0 mg/kg/injection, schedule: Q04DX003 (ip), vehicle: Klucel (hydroxypropylcellulose) (HPC)
[6] = dose: 100.0 mg/kg/injection, schedule: Q01DX001 (ip), vehicle: other
[7] = dose: 200.0 mg/kg/injection, schedule: Q01DX001 (ip), vehicle: other
[8] = dose: 100.0 mg/kg/injection, schedule: Q01DX001 (ip), vehicle: Klucel (hydroxypropylcellulose) (HPC)
[9] = dose: 200.0 mg/kg/injection, schedule: Q01DX001 (ip), vehicle: Klucel (hydroxypropylcellulose) (HPC)
[10] = dose: 400.0 mg/kg/injection, schedule: Q01DX001 (ip), vehicle: Klucel (hydroxypropylcellulose) (HPC)
[11] = dose: 400.0 mg/kg/injection, schedule: Q01DX009 (ip), vehicle: Klucel (hydroxypropylcellulose) (HPC)
[12] = dose: 100.0 mg/kg/injection, schedule: Q01DX001 (ip), vehicle: saline

Measured: T/C

C=CCOc1cc(C)cc(C)c1C
inactive: dose: 50.0 mg/kg/injection, schedule: Q01DX009 (ip), vehicle: Klucel (hydroxypropylcellulose) (HPC) 95 % of control | dose: 85.0 mg/kg/injection, schedule: Q04DX003 (ip), vehicle: Klucel (hydroxypropylcellulose) (HPC) 90 % of control | [1] 94 % of control | [2] 112 % of control | dose: 135.0 mg/kg/injection, schedule: Q04DX003 (ip), vehicle: Klucel (hydroxypropylcellulose) (HPC) 90 % of control | [3] 89 % of control | [4] 88 % of control | dose: 300.0 mg/kg/injection, schedule: Q04DX003 (ip), vehicle: Klucel (hydroxypropylcellulose) (HPC) 90 % of control | [5] 120 % of control

CN1C(=O)C(Br)C(Br)c2ccccc21 (stereo not given)
inactive: [6] 107 % of control | [7] 102 % of control

CC(=O)N1CCN(C(C)=O)C1=S
inactive: [8] 96 % of control | [9] 95 % of control | [10] 98 % of control

CC1OC(=O)C(C(C)C)NC(=O)C(C(C)C)OC(=O)C(C(C)C)NC(=O)C(C)OC(=O)C(C(C)C)NC(=O)C(C(C)C)OC(=O)C(C(C)C)NC(=O)C(C)OC(=O)C(C(C)C)NC(=O)C(C(C)C)OC(=O)C(C(C)C)NC1=O (stereo not given)
inactive: dose: 0.13 mg/kg/injection, schedule: Q01DX001 (ip), vehicle: saline 103 % of control | dose: 0.25 mg/kg/injection, schedule: Q01DX001 (ip), vehicle: saline 101 % of control | dose: 0.5 mg/kg/injection, schedule: Q01DX001 (ip), vehicle: saline 100 % of control | dose: 1.0 mg/kg/injection, schedule: Q01DX001 (ip), vehicle: saline 98 % of control | dose: 1.25 mg/kg/injection, schedule: Q01DX009 (ip), vehicle: saline with Tween-80 113 % of control | dose: 2.5 mg/kg/injection, schedule: Q01DX009 (ip), vehicle: saline with Tween-80 121 % of control | dose: 5.0 mg/kg/injection, schedule: Q01DX009 (ip), vehicle: saline with Tween-80 113 % of control | dose: 10.0 mg/kg/injection, schedule: Q01DX009 (ip), vehicle: saline with Tween-80 90 % of control

CCN(C(C)=O)c1ccccc1C#N
inactive: dose: 75.0 mg/kg/injection, schedule: Q01DX001 (ip), vehicle: saline 107 % of control | dose: 150.0 mg/kg/injection, schedule: Q01DX001 (ip), vehicle: saline 107 % of control

O=[N+]([O-])c1ncn(C2CCCCO2)c1Br (stereo not given)
inactive: dose: 50.0 mg/kg/injection, schedule: Q04DX003 (ip), vehicle: gum acacia 99 % of control | dose: 100.0 mg/kg/injection, schedule: Q04DX003 (ip), vehicle: gum acacia 100 % of control | dose: 200.0 mg/kg/injection, schedule: Q04DX003 (ip), vehicle: gum acacia 100 % of control

Cc1ccc(N2CCOC2=O)cc1N1CCOC1=O
inactive: dose: 25.0 mg/kg/injection, schedule: Q04DX003 (ip), vehicle: other 97 % of control | dose: 50.0 mg/kg/injection, schedule: Q04DX003 (ip), vehicle: other 104 % of control | dose: 100.0 mg/kg/injection, schedule: Q04DX003 (ip), vehicle: other 103 % of control | dose: 100.0 mg/kg/injection, schedule: Q04DX003 (ip), vehicle: saline with Tween-80 94 % of control

CCS(=O)(=O)N1CC(C)OC(C)C1 (stereo not given)
inactive: dose: 100.0 mg/kg/injection, schedule: Q04DX002 (ip), vehicle: Klucel (hydroxypropylcellulose) (HPC) 96 % of control | dose: 200.0 mg/kg/injection, schedule: Q04DX002 (ip), vehicle: Klucel (hydroxypropylcellulose) (HPC) 103 % of control | dose: 400.0 mg/kg/injection, schedule: Q04DX002 (ip), vehicle: Klucel (hydroxypropylcellulose) (HPC) 107 % of control

Cc1ccc(-n2c(O)c(N=Nc3ccccc3C)c(=O)n(-c3ccccc3)c2=S)cc1
inactive: [8] 94 % of control | [9] 104 % of control | [10] 99 % of control

Cc1cc(CC(Cl)(C(F)(F)F)C(F)(F)F)cc(CC(Cl)(C(F)(F)F)C(F)(F)F)n1
inactive: dose: 12.5 mg/kg/injection, schedule: Q01DX009 (ip), vehicle: saline with Tween-80 108 % of control | dose: 25.0 mg/kg/injection, schedule: Q01DX009 (ip), vehicle: saline with Tween-80 106 % of control

N#CCCC(CCC#N)c1cccc(C(CCC#N)CCC#N)n1
inactive: dose: 12.5 mg/kg/injection, schedule: Q04DX003 (ip), vehicle: Klucel (hydroxypropylcellulose) (HPC) 96 % of control | dose: 25.0 mg/kg/injection, schedule: Q04DX003 (ip), vehicle: Klucel (hydroxypropylcellulose) (HPC) 95 % of control | dose: 50.0 mg/kg/injection, schedule: Q04DX003 (ip), vehicle: Klucel (hydroxypropylcellulose) (HPC) 90 % of control | [2] 96 % of control

O=[N+]([O-])c1cccc(N=Cc2ccccc2)c1
inactive: [1] 117 % of control | [2] 88 % of control | [3] 111 % of control | [4] 96 % of control | [11] 88 % of control | [5] 97 % of control

C/C=C/c1ccc(OC)cc1
inactive: dose: 100.0 mg/kg/injection, schedule: Q04DX002 (ip), vehicle: saline 104 % of control | dose: 200.0 mg/kg/injection, schedule: Q04DX002 (ip), vehicle: saline 104 % of control | dose: 400.0 mg/kg/injection, schedule: Q04DX002 (ip), vehicle: saline 97 % of control

OC(CNc1ccc(Cl)cc1)CN1CCCC1 (stereo not given)
inactive: dose: 75.0 mg/kg/injection, schedule: Q04DX003 (ip), vehicle: saline 101 % of control

OC1C2CCC(C2)[CH]1[Hg][Cl] (stereo not given)
inactive: dose: 15.0 mg/kg/injection, schedule: Q01DX001 (ip), vehicle: carboxymethylcellulose (CMC) 95 % of control

O=C(CC1(O)CCCCC1)Nc1ccccc1
inactive: dose: 50.0 mg/kg/injection, schedule: Q01DX001 (ip), vehicle: saline 100 % of control | [12] 97 % of control | dose: 200.0 mg/kg/injection, schedule: Q01DX001 (ip), vehicle: saline 101 % of control | dose: 400.0 mg/kg/injection, schedule: Q01DX001 (ip), vehicle: saline 97 % of control

Cc1ccc(NC(=S)N(C)C)cc1
inactive: [1] 104 % of control | [3] 108 % of control | [11] 108 % of control

O=C(O)C(O)(c1ccccc1)C1CCCCC1 (stereo not given)
inactive: dose: 100.0 mg/kg/injection, schedule: Q04DX002 (ip), vehicle: saline with Tween-80 91 % of control | dose: 200.0 mg/kg/injection, schedule: Q04DX002 (ip), vehicle: saline with Tween-80 105 % of control | dose: 400.0 mg/kg/injection, schedule: Q04DX002 (ip), vehicle: saline with Tween-80 98 % of control

CC(=O)Nc1ccc(NC(=O)c2ccc([As](O)O)cc2)cc1
inactive: dose: 25.0 mg/kg/injection, schedule: Q01DX001 (ip), vehicle: carboxymethylcellulose (CMC) 100 % of control | dose: 50.0 mg/kg/injection, schedule: Q01DX001 (ip), vehicle: carboxymethylcellulose (CMC) 102 % of control | dose: 100.0 mg/kg/injection, schedule: Q01DX001 (ip), vehicle: carboxymethylcellulose (CMC) 107 % of control | dose: 200.0 mg/kg/injection, schedule: Q01DX001 (ip), vehicle: carboxymethylcellulose (CMC) 113 % of control

Cc1cc2nc3c(nc2cc1C)-c1ccccc1C3=O
inactive: dose: 100.0 mg/kg/injection, schedule: Q01DX009 (ip), vehicle: saline with Tween-80 117 % of control | dose: 200.0 mg/kg/injection, schedule: Q01DX009 (ip), vehicle: saline with Tween-80 101 % of control | dose: 400.0 mg/kg/injection, schedule: Q01DX009 (ip), vehicle: saline with Tween-80 97 % of control

O=C(CCC(C(=O)Nc1ccccc1)C(O)(c1ccccc1)c1ccccc1)Nc1ccccc1 (stereo not given)
inactive: [6] 91 % of control | [7] 91 % of control | dose: 400.0 mg/kg/injection, schedule: Q01DX001 (ip), vehicle: other 89 % of control

COc1ccc(OC)c2ncccc12
inactive: [12] 104 % of control
